Assay results reported in patent publication US20030083228A1, “Treatments for female sexual dysfunction and methods for identifying compounds useful for treating female sexual dysfunction” (priority 2001, published 2003).

Tests used:
[1] = target: melanocortin-4 receptors (Homo sapiens, UniProt P32245); assay: [125I]AGRP competition binding assay; conditions: particularly melanocortin-4 receptors
Text: (§1) The first radioligand binding assay is an [^125I]AGRP competition binding assay. Compounds that attenuate binding of [^125I]AGRP or AGRP would be detected in this assay. It is noted that compounds can attenuate the binding of AGRP to melanocortin 3 and/or 4 receptors by binding to melanocortin 3 and/or 4 receptors or by binding to AGRP itself. The second radioligand binding assay is an assay using radiolabeled melanocortin ligands, for example, [^125I]norleucine D-phenylalanine melanocyte stimulating hormone ([^125I]NDP-MSH). Membranes prepared from cells expressing either melanocortin 3 or 4 receptors are used in the radioligand binding assays. The preparation and use of [^125I]AGRP and [^125I]NDP-MSH is well known in the art. See, for example, Dang et al., Molecular Endocrinology, 13, 148-155 (1999). In addition, the preparation and use of membranes from cells expressing either melanocortin 3 or 4 receptors are also well known in the art. See, Bass, et al., Molecular Pharmacology, 50, 709-715 (1996).
(§2) Specific Activity of [^125I]AGRP is 2200 Ci/mmole. The final concentration of [^125I]AGRP is 100 pM. Therefore, a 2 nM (20×) stock needs to be made in binding buffer. The concentration of [^125I]AGRP varies from 40-60 nM. [^125I]AGRP can be obtained from New England Nuclear, Boston, Mass.
(§3) The competition assay can be run using 96 well plates. […]

[2] = tested on: melanocortin receptors; assay: [125I]NDP-MSH competition binding assay
Text: as §1
as §2, with “of [^125I]NDP-MSH” for “of [^125I]AGRP”, “is 250” for “is 100”, “a 5” for “a 2”, “nM. [^125I]NDP-MSH” for “nM. [^125I]AGRP”
as §3

[3] = tested on: MDA-MB-231 cells; assay: Inhibition of in vitro human breast tumor cell growth, ER-negative cell line; assay type: cell-based; conditions: MDA-MB-231 (ER-negative), 6 days incubation, direct cell counts
Experimental: The in vitro antiproliferative effects of (−)-cis-6-phenyl-5-[4-(2-pyrrolidin-1-yl-ethoxy)-phenyl]-5,6,7,8-tetrahydro-naphthalene-2-ol (PPTN) were tested using two types of human breast cancer cell lines: first, MCF-7 cells, which contain ER as well as progesterone receptors (PgR), and second, MDA-MB-231 cells, which lack ER and PgR, and enable the determination of an effect that is independent of the ER mechanism. The effect of PPTN on the growth of these different cell lines was determined by incubation of the cells with various compound concentrations for 6 days.
The antiproliferative effects were then determined by direct cell counts. PPTN inhibited the growth of the ER-positive cell line MCF-7.

Chain of melanocortin-4 receptors (P32245 whole entry): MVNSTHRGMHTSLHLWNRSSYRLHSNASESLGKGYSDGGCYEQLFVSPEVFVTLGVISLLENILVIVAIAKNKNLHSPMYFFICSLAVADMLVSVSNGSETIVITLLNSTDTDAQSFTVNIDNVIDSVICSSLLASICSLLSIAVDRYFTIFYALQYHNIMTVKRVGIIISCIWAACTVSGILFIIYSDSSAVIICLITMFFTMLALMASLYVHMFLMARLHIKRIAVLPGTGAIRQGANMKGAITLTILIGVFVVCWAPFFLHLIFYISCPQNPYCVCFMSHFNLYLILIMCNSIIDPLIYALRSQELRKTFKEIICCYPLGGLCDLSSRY

binding of agouti-related protein to melanocortin receptors [1] | binding of α-melanocyte stimulating hormone to melanocortin receptors [2] | SMILES | effect on cell proliferation [3]
attenuates | does not attenuate | O=[N+]([O-])c1ccc(N2C3c4ccccc4CCN3N(c3ccc([N+](=O)[O-])cc3)C3c4ccccc4CCN32)cc1 (stereo not drawn) [8,16-bis-(4-nitro-phenyl)-5,6,8,8a,13,14,16,16a-octahydro-[1,2,4,5]tetrazino[6,1-a;3,4-a′]diisoquinoline] | 
 |  | Oc1ccc2c(c1)CC[C@H](c1ccccc1)[C@@H]2c1ccc(OCCN2CCCC2)cc1 [PPTN, (−)-cis-6-phenyl-5-[4-(2-pyrrolidin-1-yl-ethoxy)-phenyl]-5,6,7,8-tetrahydro-naphthalene-2-ol] | did not inhibit cell proliferation
